Experimental data reported in patent US20100068150A1, “Selective Caspase Inhibitors” (The Board of Trustees of the Leland Stanford Junior …, priority 2006, published 2010).

Assays:
[1] = tested on: cathepsin B and legumain; test: In vivo labeling of cathepsin B and legumain in kidney and spleen of normal mice; conditions: intravenous, tissues collected 2 hrs after injection
Experimental: The present selective caspase inhibitors may be used for in vivo imaging. Cy5-fluorescent labeled versions of AB46 and AB50 were injected into normal mice and labeling of cathepsins and legumain in kidney and spleen was monitored (FIG. 14).
Normal mice were intravenously injected with the probes and tissues were collected 2 hrs after injection. Tissues were homogenized and total protein samples were analyzed by SDS-PAGE followed by scanning of the gel using a fluorescent scanner.

[2] = target: T1, caspase-3 (Mus musculus, UniProt P70677); test: In vivo labeling of caspase-3 in the thymus of dexamethazone treated mice; conditions: dexamethazone 40 mg/kg IP, probe by tail vein after 12 or 24 hrs, 3 hrs circulation
T1 construct: from tissue; host or cells: thymus of Balb-c mice
T1 sequence (P70677 29-175 limits assumed): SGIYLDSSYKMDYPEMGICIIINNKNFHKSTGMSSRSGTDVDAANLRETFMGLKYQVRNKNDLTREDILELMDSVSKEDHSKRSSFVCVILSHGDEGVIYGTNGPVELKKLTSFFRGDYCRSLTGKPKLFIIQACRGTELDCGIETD
T1 sequence (P70677 176-277 limits assumed): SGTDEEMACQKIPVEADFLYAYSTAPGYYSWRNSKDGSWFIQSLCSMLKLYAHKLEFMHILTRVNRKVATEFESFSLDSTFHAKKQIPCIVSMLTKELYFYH
From the text: The following example utilizes dexamethazone-induced apoptosis in the thymus. See, Cristina et al., “Dexamethasone-induced apoptosis of thymocytes: role of glucocorticoid receptor-associated Src kinase and caspase-8 activation,” prepublished online as a Blood First Edition Paper on Aug. 29, 2002; DOI 10.1182/blood-2002-06-1779. This is a particularly simple model that allows one to activate apoptosis specifically in the thymus by injection of normal mice with low doses of dexamethazone. […] Also, one can monitor changes in activation of caspases with time after induction of apoptosis.
Wild Type Balb-c mice were injected with dexamethazone (40 mg/kg) by IP injection. After 12 or 24 hrs the general caspase probe AB50 was injected by tail vein and the probe allowed to circulate for 3 hrs, at which time tissues from thymus, lung, liver, and kidney were collected. We removed the thymus, kidney and lung and imaged the whole organs using the IVIS2000 system. The tissues were then analyzed by SDS-PAGE and fluorescent scanning of the gels. For comparison we monitored the levels of cleaved, active caspase-3 using a specific antibody. […] An antibody against actin was used as a loading control.

Cc1cccc(C)c1C(=O)OCC(=O)[C@H](CC(=O)O)NC(=O)C1CCCN1C(=O)[C@@H](CCC(=O)O)NC(=O)Cc1ccc(O)c([N+](=O)[O-])c1 (stereo partly drawn) [AB50, NP-E-P- D-AOMK]
in vivo labeling in kidney and spleen [1]: only labeled legumain | in vivo labeling of caspase-3 in thymus [2]: Bands can be clearly seen at the caspase-3 estimated MW
